Reference: patent publication US11567011B2, “System and method for drug detection in exhaled breath” (Sensa Bues AB, priority 2009, dated 2023)

Assays:
[1] = Example 2: methadone in exhaled breath collected on Empore C18 disc, UPLC-MS/MS; details: all 13 studied patients
[2] = Example 1: amphetamine and methamphetamine in expired air collected on SPE cartridge, SRM UPLC-MS/MS; details: all 12 studied patients

SMILES | detection in the sampled exhaled breath [1] | detection in the expired air sample [2]
CCC(=O)C(CC(C)N(C)C)(c1ccccc1)c1ccccc1 (centres unmarked) [methadone] | detected | –
CN[C@@H](C)Cc1ccccc1 [methamphetamine] | – | detected
